Patent US5677331A, “Antimalarial compositions” (priority 1990, dated 1997)

Key:
[1] = test system: chloroquine-resistant strains of Plasmodium falciparum; settings: in vivo; cited from earlier work
[2] = test system: P. Berghei K173 N-strain; experiment: blood schizontocidal action, 4-day test according to Peters; type: in vivo, P. Berghei in mice; settings: component alone, oral, mice, mean of three experiments
Experimental: The synergism between the components benflumetol and artemether is determined according to the method of Peters: Am. Trop. Med. Parasitol Vol. 62, pg. 488-492 (1968).
Blood schizintocidal action of artemether (A) and benflumetol (B) admimistered orally in varying proportions to mice infected with P. Berghei K173 N-strain in "4-day test" according to Peters (Mean values of three experiments)

[3] = test system: protozoa; experiment: rate of killing protozoa in vivo in mice; settings: 20× ED90 intragastrically
Experimental: The rate of killing protozoa was determined in-vivo. When the protozoa concentration in the blood of mice increased to high density, a multiple dose equivalent, i.e. 20× ED90 was given intragastrically. The rate of decrease of protozoae in blood was observed uninterruptedly after administration.

[4] = toxicity and tolerability of benflumetol (general statement)
Description: The dose of the active component benflumetol (I) as contained in the pharmaceutical composition may vary within wide limits and depends on the condition of the patient and the time period elapsed after the outbreak of the disease.

[5] = test system: pernicious malaria protozoae; experiment: clinical therapeutic effect of individual components compared to combination; type: in vivo, patients (human); settings: oral, 3 days and 4 doses; for time for disappearance of protozoae: average; for rate of decrease in protozoae at 24 hours: 20 patients per group
Description: Determination of therapeutic effect of individual components as compared to synergistic combination: Two groups of patients were selected for oral administration and the 3 days and 4 doses treatment scheme. There were 20 patients with pernicious malaria in each group. The therapeutic effect of the combination and artemether and benflumetol singly were compared separately. The doses of both drugs in individual administration were about the same as in the complex prescription. The parameters determined were: 1) the rate for decrease of protozoa at 24 h post administrationem; 2) average time for disappearance of protozoae; 3) average time for fever subsidence; and 4) cure rate at the 28th day.

| SMILES | activity against chloroquine-resistant strains of Plasmodium falciparum in man [1] | Effective dose of first component ED50 [2] [mg/kg/day] | Effective dose of first component ED90 [2] [mg/kg/day] | timespan required for 90% decrease of the protozoae [3] [h] | tolerability [4] | toxicity [4] | time for disappearance of protozoae [5] [h] | 28-day cure rate [5] [%] | average time for fever subsidence [5] [h] | rate of decrease in protozoae at 24 hours [5] [%] | killing of protozoae ([3]; before their number increased again) |
| --- | --- | --- | --- | --- | --- | --- | --- | --- | --- | --- | --- |
| C[C@@H]1CC[C@H]2[C@@H](C)C(=O)O[C@@H]3O[C@@]4(C)CC[C@@H]1[C@]32OO4 [Artemisinine] | active against chloroquine-resistant strains of Plasmodium falciparum in man | – | – | – | – | – | – | – | – | – | – |
| CCCCN(CCCC)CC(O)c1cc(Cl)cc2c1-c1ccc(Cl)cc1C2=Cc1ccc(Cl)cc1 (centres unmarked) [benflumetol] | – | 1.30 | 2.70 | 64.3 | high tolerability | low toxicity | 68.4 | 65 | 40 | 74.5 | – |
| CO[C@H]1O[C@@H]2O[C@@]3(C)CC[C@H]4[C@H](C)CC[C@@H]([C@H]1C)[C@@]24OO3 [artemether] | – | 2.00 | 5.30 | – | – | – | 38.7 | 45 | 19.7 | 95.1 | could not kill protozoae by more than 90% before their number increased again |
